From paper PMC10821286 (Marine Drugs, 2023) come the findings set out here.

The test system of series [1] is S. pseudintermedius A2101. Kind of series: organism not typed. It counts as cell-based. The note with it: microbroth dilution, 1 × 10^5 CFU/mL, 37 °C, 12–18 h, triplicate. The method, then: (§1) Each experiment was performed in triplicate.
On the technique in general: In broth dilution the organism is exposed to a series of concentrations in liquid medium.

Series [2] deals with S. epidermidis ATCC 12228. Kind of series: microbe, parasite or virus in culture. It counts as cell-based, Staphylococcus epidermidis. To be noted: 1 × 10^5 CFU/mL, 37 °C, 12–18 h, triplicate. The protocol:
as §1

In series [3] the test system is S. epidermidis G-81. Kind of series: microbe, parasite or virus in culture. It counts as cell-based, Staphylococcus epidermidis. The note with it: 1 × 10^5 CFU/mL, 37 °C, 12–18 h, triplicate. The protocol: as §1
The test system of another series is Hacat cells. The note with it: 24 h, cck-8.
Another series relates to S. aureus ATCC 43300. Kind of series: microbe, parasite or virus in culture. It counts as cell-based, Staphylococcus aureus. The note with it: 1 × 10^5 CFU/mL, 37 °C, 12–18 h, triplicate. The protocol: as §1
For another series, the system named is S. aureus ATCC 25923. Kind of series: microbe, parasite or virus in culture. The note with it: 1 × 10^5 CFU/mL, 37 °C, 12–18 h, triplicate. It counts as cell-based, Staphylococcus aureus. The protocol: as §1
The test system of a further series is S. aureus E48. Kind of series: microbe, parasite or virus in culture. It counts as cell-based, Staphylococcus aureus. To be noted: microbroth dilution, 1 × 10^5 CFU/mL, 37 °C, 12–18 h, triplicate. The method, then:
as §1

The test system of series [4] is S. epidermidis G-81. Kind of series: Murine subcutaneous abscess model of S. epidermidis infection. It counts as in vivo, BALB/c mice. The note with it: mice, day three post-infection. The method, then: The sterile saline was used for rapid washing twice.
The six-week-old BALB/c mice were divided randomly into five groups of nine animals: a normal saline control group, an infection group, three drug treatment groups (including AOD treatment in two groups and lincomycin treatment in one group). The hair removal solution was applied to the abdomen of each mouse in every group. One day later, each group, except for the control group, was subcutaneously injected with 0.1 mL of S. epidermidis G-81 at a concentration of 1 × 10^10 CFU/mL. […] In contrast, the infected group received an injection of 10 μL normal saline. The treatment duration was three days, and we continuously observed the weight and volume changes in the abscesses for 15 days. […] […] The results were presented as means ± standard deviation (SD).

The subject of the next series is mouse red blood cells. The note with it: 128 μg/mL; mouse erythrocytes, 37 °C, 1 h.
The conditions of series [5]: 100 °C, one hour in PBS; read-out MIC against S. epidermidis. The method, then: (§2) Each experiment was performed in triplicate, and data were analyzed by the GraphPad Prism (version 8, USA, the software download from https://www.graphpad-prism.cn/, accessed on 7 June 2023).
The next series concerns trypsin. To be noted: trypsin 250 U/mg, pH 8.0, ratio 10:1, 37 °C, 4 h; read-out MIC against S. epidermidis, triplicate. The method, then: as §2
The next series deals with pepsin. The note with it: pepsin 3000 U/mg, pH 2.0, ratio 10:1, 37 °C, 4 h; read-out MIC against S. epidermidis, triplicate. The method, then: as §2
The next series has as its system S. hyicus NCTC 10350. Kind of series: microbe, parasite or virus in culture. It counts as cell-based. To be noted: 1 × 10^5 CFU/mL, 37 °C, 12–18 h, triplicate. The method, then: as §1
The subject of another series is S. agalactiae ATCC 13813. To be noted: microbroth dilution, 1 × 10^5 CFU/mL, 37 °C, 12–18 h, triplicate. The method, then:
(§3) The strains to be tested were cultured overnight at 37 °C and then transferred to fresh medium until the logarithmic phase of growth was reached. […] The plate was then incubated at 37 °C for 12–18 h. The minimum concentration of no bacterial growth was recorded as the MIC value. Each experiment was performed in triplicate.

For series [6], the system named is S. epidermidis ATCC 35984. To be noted: microbroth dilution, 1 × 10^5 CFU/mL, 37 °C, 12–18 h, triplicate. The method, then: as §3
The nature of a further series: Ion stability. It counts as physicochemical. To be noted: Zn2+, Mg2+, Ca2+, NH4+, K+, Na+; 37 °C, 4 h (method); read-out MIC against S. epidermidis. An excerpt: The results were presented as means ± standard deviation (SD).
The subject of a further series is E. coli ATCC 25922. Kind of series: MIC, microbroth dilution. It counts as cell-based. The note with it: Escherichia coli, ATCC25922, 1 × 10^5 CFU/mL, 37 °C, 12–18 h, triplicate.
For series [7], the system named is S. epidermidis G-81. Kind of series: Time-killing curves. It counts as cell-based, Staphylococcus epidermidis. The note with it: S. epidermidis G-81, lincomycin 1× and 2× MIC (positive control), 24 h. The protocol: Samples were collected at intervals of 0, 0.5, 1, 2, 4, 6, 8, 10, 12, and 24 h, respectively, and subjected to 10-fold serial dilutions followed by colony counting. PBS and Lincomycin were used as negative and positive controls. […] The results were presented as means ± standard deviation (SD).

Molecules are shown by their SMILES. Values after ≈ are worked out from the molar mass of the structure shown. Like-named read-outs stand apart in the source and are kept apart here. Where a SMILES comes first, the peptide text is derived from it. Bridges are numbered along the chain shown (N, C = ends).

Experimental for Hacat cells: Cell survival rate is calculated as follows: Survival rate (%) = (A/Acontrol) × 100.
Experimental for mouse red blood cells: Erythrocytes from mice of SPF grade were centrifuged at 2000 rpm for 5 min, followed by washes with saline solution three times. […] The mixture was then incubated at 37 °C for 1 h. Subsequently, it was centrifuged at 5000 rpm for 5 min and the supernatant was collected for measurement of the absorbance at OD540 nm. The 0.9% NaCl and 0.1% Triton X-100 were used as blank (A0) and positive (A100) controls, respectively [32]. The percentage of peptide hemolysis is calculated as follows: Hemolysis (%) = [(A − A0)/(A100 − A0)] × 100. Each experiment was performed in triplicate, and data were analyzed by the GraphPad Prism (version 8, USA, the software download from https://www.graphpad-prism.cn/, accessed on 7 June 2023).

With `CC[C@H](C)[C@@H]1NC(=O)[C@H](CO)NC(=O)[C@H](CCCNC(=N)N)NC(=O)[C@@H]2CSSC[C@@H](C(=O)N[C@@H](Cc3ccc(O)cc3)C(=O)N[C@@H](CCCNC(=N)N)C(=O)N[C@@H](CO)C(=O)O)NC(=O)[C@H]([C@@H](C)O)NC(=O)[C@@H]3CSSC[C@H](NC(=O)[C@H](CCC(N)=O)NC(=O)[C@H](Cc4ccc(O)cc4)NC(=O)[C@H](CCCNC(=N)N)NC(=O)[C@H](CC(N)=O)NC(=O)[C@H](Cc4c[nH]c5ccccc45)NC(=O)[C@@H]4CCCN4C(=O)[C@@H](NC(=O)CNC(=O)[C@H](Cc4ccccc4)NC(=O)CN)CSSC[C@H](NC(=O)[C@H](Cc4ccc(O)cc4)NC(=O)CNC(=O)CNC(=O)[C@H](CC(C)C)NC(=O)[C@H](CCCNC(=N)N)NC(=O)CNC1=O)C(=O)N[C@@H](C)C(=O)NCC(=O)N[C@@H](CO)C(=O)N[C@@H](CC(C)C)C(=O)N[C@@H](CCCNC(=N)N)C(=O)N[C@@H](CC(C)C)C(=O)N[C@@H]([C@@H](C)O)C(=O)N3)C(=O)N[C@@H](Cc1c[nH]cn1)C(=O)N[C@@H](CO)C(=O)N[C@@H](Cc1c[nH]cn1)C(=O)N2` [AOD] (H-GFGCPWNRYQCHSHCRSIGRLGGYCAGSLRLTCTCYRS-OH; disulfide 4-25, 11-33, 15-35), the MIC in series [1] stood at 8 µg/mL (≈ 1.88 µM); in [2] (microbroth dilution), 4 µg/mL (≈ 0.938 µM); against S. epidermidis G-81 [3] (microbroth dilution), 4 µg/mL (≈ 0.938 µM); in the series with S. aureus ATCC 43300 (microbroth dilution) it was 8 µg/mL (≈ 1.88 µM); against S. aureus ATCC 25923 (microbroth dilution), 16 µg/mL (≈ 3.75 µM); in the series on S. aureus E48, 8 µg/mL (≈ 1.88 µM). The MIC in the series on S. hyicus NCTC 10350 (microbroth dilution) came out at 16 µg/mL (≈ 3.75 µM); against S. agalactiae ATCC 13813, 4 µg/mL (≈ 0.938 µM); in series [6], 4 µg/mL (≈ 0.938 µM). Further, the cell survival rate entry with Hacat cells (128 μg/mL) was “over 83%”; in the series with Hacat cells (128 mg/mL (so in the source)), 98%. Also, the heart indices result with S. epidermidis G-81 [4] is listed as “elevated only in the AOD-treated group”. Further, in the series on mouse red blood cells, the hemolysis rate result is given as “less than 0.5%”. In addition, the “antibacterial activity remaining after heating” value in series [5] was 20%. Further, the “MIC values after treatment with trypsin” value with trypsin was “remained unchanged”. For the same molecule, the “MIC values after treatment with pepsin” value with pepsin is “remained unchanged”. In addition, the ion stability entry in the series “Ion stability” is reported as “remarkable stability”.

Regarding `CCC[C@@H]1C[C@@H](C(=O)N[C@@H]([C@H]2O[C@H](SC)[C@H](O)[C@@H](O)[C@H]2O)[C@@H](C)O)N(C)C1` [Lincomycin, reference compound], the MIC in series [1] (read-out: MIC) was 32 µg/mL (≈ 78.7 µM); in series [2] (Staphylococcus epidermidis, ATCC12228, microbroth dilution, read-out: MIC) it was 4 µg/mL (≈ 9.84 µM); in the series on S. epidermidis G-81 [3] (Staphylococcus epidermidis, G81, microbroth dilution, read-out: MIC), 4 µg/mL (≈ 9.84 µM); with E. coli ATCC 25922, 2 µg/mL (≈ 4.92 µM); in the series with S. aureus ATCC 43300 (Staphylococcus aureus, ATCC43300, microbroth dilution, read-out: MIC) it was greater than 64 µg/mL; in the series on S. aureus ATCC 25923 (Staphylococcus aureus, ATCC25923, microbroth dilution, read-out: MIC), 1 µg/mL (≈ 2.46 µM). Also, the MIC came to 1 µg/mL (≈ 2.46 µM) with S. aureus E48 (Staphylococcus aureus, read-out: MIC) and 32 µg/mL (≈ 78.7 µM) in the series on S. hyicus NCTC 10350 (Staphylococcus hyicus, NCTC10350, microbroth dilution, read-out: MIC). Further, in the series with S. epidermidis G-81 [7], the “course of bacterial counts” value was “gradual decrease”.
